Square brackets hold non-standard residues; d marks the D form. Peptide text beside a SMILES is read from it. Aib = CC(C)(N)C(=O)O
Key:
GLP1R = GLP1R (Homo sapiens, UniProt P43220); experiment: hGLP1R potency, cAMP accumulation in CHO-K1 cells stably overexpressing hGLP1R; format: cell-based; set-up: host or cells: CHO-K1; details: for Selectivity: SCTR EC50/GLP1R EC50 ratio; for EC50: read-out: pEC50 hGLPR1 (converted)
Excerpt: (§1) Crude library peptides are screened in 10-fold serial dilutions of 5 concentrations, n=1 time. Tip change is done for the first two serial dilutions. Compound starting concentration (top) will be adjusted throughout the study if needed.
(§2) Purified peptides are screened in 3-fold serial dilutions of 11 concentrations, n=2 times. Tip change is done for all serial dilutions. Compound starting concentration (top) will be adjusted throughout the study. If the top concentration is adjusted or a 5-fold difference in calculated EC50 values is observed, n is increased by 1. EC50 values were calculated by nonlinear regression using sigmoid concentration-response with variable slope.
(§3) A CHO-K1 cell line stably overexpressing the hGLP1R was obtained from Euroscreen (FAST-0145L), expanded, aliquoted and frozen. An aliquot was thawed and plated in DPBS with 0.05% casein and 0.5 mM IBMX as 2000 cells/well in a 384-well format. The cells were then immediately stimulated for 30 min at room temperature with graded doses of test compound using human GLP-1(7-36) (synthesized at Gubra) as a positive control. cAMP accumulation was measured using a Cisbio assay for Gs coupled receptors (cat. no. 62AM4PEC), where the assay reagents were added as per the manufacturer's instructions and time-resolved fluorescence energy transfer recorded after one hour on a CLARIOstar (BMG Labtech) plate reader.

SCTR = SCTR (Homo sapiens, UniProt P47872); experiment: hSCTR potency, cAMP accumulation in CHO-K1 cells stably overexpressing hSCTR; format: cell-based; set-up: alternatively Euroscreen ES-712-AF; FAST-0161L; host or cells: CHO-K1; details: Table 4, position X12 variants of GUB06-046; read-out: pEC50 hSCTR (converted)
Excerpt: as §1, §2
as §3, with “Frozen division arrested CHO-K1 cells stably overexpressing the hSCTR were obtained from PerkinElmer (ES-712-AF). Alternatively, a CHO-K1” for “A CHO-K1”, “the hSCTR” for “the hGLP1R”, “Euroscreen (FAST-0161L),” for “Euroscreen (FAST-0145L),”, “human secretin” for “human GLP-1(7-36)”

[1] = Table 3, position X^10 variants of GUB06-046
[2] = Table 4, position X12 variants of GUB06-046

Sequence of SCTR (P47872 23-440): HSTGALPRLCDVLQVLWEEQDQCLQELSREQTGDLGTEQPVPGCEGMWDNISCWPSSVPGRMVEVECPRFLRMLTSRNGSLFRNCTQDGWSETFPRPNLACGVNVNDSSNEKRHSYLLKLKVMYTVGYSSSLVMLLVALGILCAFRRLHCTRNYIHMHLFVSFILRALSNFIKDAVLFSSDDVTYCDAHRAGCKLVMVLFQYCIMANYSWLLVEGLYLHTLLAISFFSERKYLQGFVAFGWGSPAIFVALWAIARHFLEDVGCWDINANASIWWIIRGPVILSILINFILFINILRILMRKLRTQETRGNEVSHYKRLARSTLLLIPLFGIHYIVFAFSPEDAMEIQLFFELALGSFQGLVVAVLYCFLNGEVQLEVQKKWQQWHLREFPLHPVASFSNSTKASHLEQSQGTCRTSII
Sequence of GLP1R (P43220 24-463): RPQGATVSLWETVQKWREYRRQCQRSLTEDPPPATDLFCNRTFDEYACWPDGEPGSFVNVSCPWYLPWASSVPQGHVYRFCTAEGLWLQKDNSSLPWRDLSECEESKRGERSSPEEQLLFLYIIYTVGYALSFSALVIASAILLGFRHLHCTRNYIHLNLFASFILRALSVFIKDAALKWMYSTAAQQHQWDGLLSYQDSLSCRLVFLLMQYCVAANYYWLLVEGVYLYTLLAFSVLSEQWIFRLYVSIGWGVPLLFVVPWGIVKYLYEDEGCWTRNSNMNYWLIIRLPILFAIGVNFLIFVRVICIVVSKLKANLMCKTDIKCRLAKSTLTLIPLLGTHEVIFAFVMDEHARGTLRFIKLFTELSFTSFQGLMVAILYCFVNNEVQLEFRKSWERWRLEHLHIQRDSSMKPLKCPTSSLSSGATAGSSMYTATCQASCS

For `CC[C@H](C)[C@H](NC(=O)[C@H](Cc1ccccc1)NC(=O)[C@H](CCCNC(=N)N)NC(=O)[C@H](CCC(N)=O)NC(=O)[C@H](CC(C)C)NC(=O)[C@H](C)NC(=O)[C@H](C)NC(=O)CNC(=O)[C@H](CCC(=O)O)NC(=O)[C@H](CC(C)C)NC(=O)[C@H](CC(C)C)NC(=O)[C@H](CCCNC(=N)N)NC(=O)[C@H](CO)NC(=O)[C@H](Cc1ccc(O)cc1)NC(=O)[C@H](CC(=O)O)NC(=O)[C@H](CO)NC(=O)[C@@H](NC(=O)[C@H](Cc1ccccc1)NC(=O)[C@@H](NC(=O)CNC(=O)[C@H](CCC(=O)O)NC(=O)C(C)(C)NC(=O)[C@@H](N)Cc1c[nH]cn1)[C@@H](C)O)[C@@H](C)O)C(=O)N[C@@H](CCC(N)=O)C(=O)N[C@@H](Cc1c[nH]c2ccccc12)C(=O)N[C@@H](CC(C)C)C(=O)N[C@H](C(N)=O)C(C)C` [compound 217] (H-H[Aib]EGTFTSDYSRLLEGAALQRFIQWLV-NH2), the Selectivity (GLP1R; [1]) was 114.

`CC[C@H](C)[C@H](NC(=O)[C@H](Cc1ccccc1)NC(=O)[C@H](CCCNC(=N)N)NC(=O)[C@H](CCC(N)=O)NC(=O)[C@H](CC(C)C)NC(=O)[C@H](C)NC(=O)[C@H](C)NC(=O)CNC(=O)[C@H](CCC(=O)O)NC(=O)[C@H](CC(C)C)NC(=O)[C@H](CC(C)C)NC(=O)[C@H](CCC(=O)O)NC(=O)[C@H](CO)NC(=O)[C@H](CC(C)C)NC(=O)[C@H](CC(=O)O)NC(=O)[C@H](CO)NC(=O)[C@@H](NC(=O)[C@H](Cc1ccccc1)NC(=O)[C@@H](NC(=O)CNC(=O)[C@H](CCC(=O)O)NC(=O)C(C)(C)NC(=O)[C@@H](N)Cc1c[nH]cn1)[C@@H](C)O)[C@@H](C)O)C(=O)N[C@@H](CCC(N)=O)C(=O)N[C@@H](Cc1c[nH]c2ccccc12)C(=O)N[C@@H](CC(C)C)C(=O)N[C@H](C(N)=O)C(C)C` [compound 224] (H-H[Aib]EGTFTSDLSELLEGAALQRFIQWLV-NH2) gave a Selectivity (GLP1R; [2]) of 120, an EC50 (GLP1R; [2]) of 0.0126 nM and an EC50 (SCTR) of 1.58 nM.

In the case of `CC[C@H](C)[C@H](NC(=O)[C@H](Cc1ccccc1)NC(=O)[C@H](CCCNC(=N)N)NC(=O)[C@H](CCC(N)=O)NC(=O)[C@H](CC(C)C)NC(=O)[C@H](C)NC(=O)[C@H](C)NC(=O)CNC(=O)[C@H](CCC(=O)O)NC(=O)[C@H](CC(C)C)NC(=O)[C@H](CC(C)C)NC(=O)[C@H](CCCNC(=N)N)NC(=O)[C@H](CO)NC(=O)[C@@H](NC(=O)[C@H](CC(=O)O)NC(=O)[C@H](CO)NC(=O)[C@@H](NC(=O)[C@H](Cc1ccccc1)NC(=O)[C@@H](NC(=O)CNC(=O)[C@H](CCC(=O)O)NC(=O)C(C)(C)NC(=O)[C@@H](N)Cc1c[nH]cn1)[C@@H](C)O)[C@@H](C)O)[C@@H](C)CC)C(=O)N[C@@H](CCC(N)=O)C(=O)N[C@@H](Cc1c[nH]c2ccccc12)C(=O)N[C@@H](CC(C)C)C(=O)N[C@H](C(N)=O)C(C)C` [compound 218] (H-H[Aib]EGTFTSDISRLLEGAALQRFIQWLV-NH2), the Selectivity (GLP1R; [1]) is reported as 459.

`CC[C@H](C)[C@H](NC(=O)[C@H](Cc1ccccc1)NC(=O)[C@H](CCCNC(=N)N)NC(=O)[C@H](CCC(N)=O)NC(=O)[C@H](CC(C)C)NC(=O)[C@H](C)NC(=O)[C@H](C)NC(=O)CNC(=O)[C@H](CCC(=O)O)NC(=O)[C@H](CC(C)C)NC(=O)[C@H](CC(C)C)NC(=O)C(C)(C)NC(=O)[C@H](CO)NC(=O)[C@H](CC(C)C)NC(=O)[C@H](CC(=O)O)NC(=O)[C@H](CO)NC(=O)[C@@H](NC(=O)[C@H](Cc1ccccc1)NC(=O)[C@@H](NC(=O)CNC(=O)[C@H](CCC(=O)O)NC(=O)C(C)(C)NC(=O)[C@@H](N)Cc1c[nH]cn1)[C@@H](C)O)[C@@H](C)O)C(=O)N[C@@H](CCC(N)=O)C(=O)N[C@@H](Cc1c[nH]c2ccccc12)C(=O)N[C@@H](CC(C)C)C(=O)N[C@H](C(N)=O)C(C)C` [compound 223] (H-H[Aib]EGTFTSDLS[Aib]LLEGAALQRFIQWLV-NH2) showed a Selectivity (GLP1R; [2]) of 78, an EC50 (GLP1R; [2]) of 0.0631 nM and an EC50 (SCTR) of 5.01 nM.

Work on `CC[C@H](C)[C@H](NC(=O)[C@H](Cc1ccccc1)NC(=O)[C@H](CCCNC(=N)N)NC(=O)[C@H](CCC(N)=O)NC(=O)[C@H](CC(C)C)NC(=O)[C@H](C)NC(=O)[C@H](C)NC(=O)CNC(=O)[C@H](CCC(=O)O)NC(=O)[C@H](CC(C)C)NC(=O)[C@H](CC(C)C)NC(=O)CNC(=O)[C@H](CO)NC(=O)[C@H](CC(C)C)NC(=O)[C@H](CC(=O)O)NC(=O)[C@H](CO)NC(=O)[C@@H](NC(=O)[C@H](Cc1ccccc1)NC(=O)[C@@H](NC(=O)CNC(=O)[C@H](CCC(=O)O)NC(=O)C(C)(C)NC(=O)[C@@H](N)Cc1c[nH]cn1)[C@@H](C)O)[C@@H](C)O)C(=O)N[C@@H](CCC(N)=O)C(=O)N[C@@H](Cc1c[nH]c2ccccc12)C(=O)N[C@@H](CC(C)C)C(=O)N[C@H](C(N)=O)C(C)C` [compound 226] (H-H[Aib]EGTFTSDLSGLLEGAALQRFIQWLV-NH2) yielded a Selectivity (GLP1R; [2]) of 145, an EC50 (GLP1R; [2]) of 0.0316 nM and an EC50 (SCTR) of 5.01 nM.

For `CC[C@H](C)[C@H](NC(=O)[C@H](Cc1ccccc1)NC(=O)[C@H](CCCNC(=N)N)NC(=O)[C@H](CCC(N)=O)NC(=O)[C@H](CC(C)C)NC(=O)[C@H](C)NC(=O)[C@H](C)NC(=O)CNC(=O)[C@H](CCC(=O)O)NC(=O)[C@H](CC(C)C)NC(=O)[C@H](CC(C)C)NC(=O)[C@H](Cc1ccccc1)NC(=O)[C@H](CO)NC(=O)[C@H](CC(C)C)NC(=O)[C@H](CC(=O)O)NC(=O)[C@H](CO)NC(=O)[C@@H](NC(=O)[C@H](Cc1ccccc1)NC(=O)[C@@H](NC(=O)CNC(=O)[C@H](CCC(=O)O)NC(=O)C(C)(C)NC(=O)[C@@H](N)Cc1c[nH]cn1)[C@@H](C)O)[C@@H](C)O)C(=O)N[C@@H](CCC(N)=O)C(=O)N[C@@H](Cc1c[nH]c2ccccc12)C(=O)N[C@@H](CC(C)C)C(=O)N[C@H](C(N)=O)C(C)C` [compound 225] (H-H[Aib]EGTFTSDLSFLLEGAALQRFIQWLV-NH2), the Selectivity (GLP1R; [2]) was 328, the EC50 (GLP1R; [2]) was 0.0251 nM and the EC50 (SCTR) was 7.94 nM.

In the case of `CC[C@H](C)[C@H](NC(=O)[C@H](Cc1ccccc1)NC(=O)[C@H](CCCNC(=N)N)NC(=O)[C@H](CCC(N)=O)NC(=O)[C@H](CC(C)C)NC(=O)[C@H](C)NC(=O)[C@H](C)NC(=O)CNC(=O)[C@H](CCC(=O)O)NC(=O)[C@H](CC(C)C)NC(=O)[C@H](CC(C)C)NC(=O)[C@H](CCCNC(=N)N)NC(=O)[C@H](CO)NC(=O)[C@@H]1CCCN1C(=O)[C@H](CC(=O)O)NC(=O)[C@H](CO)NC(=O)[C@@H](NC(=O)[C@H](Cc1ccccc1)NC(=O)[C@@H](NC(=O)CNC(=O)[C@H](CCC(=O)O)NC(=O)C(C)(C)NC(=O)[C@@H](N)Cc1c[nH]cn1)[C@@H](C)O)[C@@H](C)O)C(=O)N[C@@H](CCC(N)=O)C(=O)N[C@@H](Cc1c[nH]c2ccccc12)C(=O)N[C@@H](CC(C)C)C(=O)N[C@H](C(N)=O)C(C)C` [compound 221] (H-H[Aib]EGTFTSDPSRLLEGAALQRFIQWLV-NH2), the Selectivity (GLP1R; [1]) is reported as 2086.

Compound `CC[C@H](C)[C@H](NC(=O)[C@H](Cc1ccccc1)NC(=O)[C@H](CCCNC(=N)N)NC(=O)[C@H](CCC(N)=O)NC(=O)[C@H](CC(C)C)NC(=O)[C@H](C)NC(=O)[C@H](C)NC(=O)CNC(=O)[C@H](CCC(=O)O)NC(=O)[C@H](CC(C)C)NC(=O)[C@H](CC(C)C)NC(=O)[C@H](CCCNC(=N)N)NC(=O)[C@H](CO)NC(=O)[C@H](Cc1c[nH]c2ccccc12)NC(=O)[C@H](CC(=O)O)NC(=O)[C@H](CO)NC(=O)[C@@H](NC(=O)[C@H](Cc1ccccc1)NC(=O)[C@@H](NC(=O)CNC(=O)[C@H](CCC(=O)O)NC(=O)C(C)(C)NC(=O)[C@@H](N)Cc1c[nH]cn1)[C@@H](C)O)[C@@H](C)O)C(=O)N[C@@H](CCC(N)=O)C(=O)N[C@@H](Cc1c[nH]c2ccccc12)C(=O)N[C@@H](CC(C)C)C(=O)N[C@H](C(N)=O)C(C)C` [compound 219] (H-H[Aib]EGTFTSDWSRLLEGAALQRFIQWLV-NH2) has a Selectivity (GLP1R; [1]) of 478.

`CC[C@H](C)[C@H](NC(=O)[C@H](Cc1ccccc1)NC(=O)[C@H](CCCNC(=N)N)NC(=O)[C@H](CCC(N)=O)NC(=O)[C@H](CC(C)C)NC(=O)[C@H](C)NC(=O)[C@H](C)NC(=O)CNC(=O)[C@H](CCC(=O)O)NC(=O)[C@H](CC(C)C)NC(=O)[C@H](CC(C)C)NC(=O)[C@H](CCCNC(=N)N)NC(=O)[C@H](CO)NC(=O)[C@@H](NC(=O)[C@H](CC(=O)O)NC(=O)[C@H](CO)NC(=O)[C@@H](NC(=O)[C@H](Cc1ccccc1)NC(=O)[C@@H](NC(=O)CNC(=O)[C@H](CCC(=O)O)NC(=O)C(C)(C)NC(=O)[C@@H](N)Cc1c[nH]cn1)[C@@H](C)O)[C@@H](C)O)C(C)C)C(=O)N[C@@H](CCC(N)=O)C(=O)N[C@@H](Cc1c[nH]c2ccccc12)C(=O)N[C@@H](CC(C)C)C(=O)N[C@H](C(N)=O)C(C)C` [compound 220] (H-H[Aib]EGTFTSDVSRLLEGAALQRFIQWLV-NH2) was tested, and the Selectivity (GLP1R; [1]) was 891.

— patent US20260201008A1, “SECRETIN-DERIVED GLP1R SELECTIVE AGONISTS” (GUBRA A/S, priority 2023, published 2026)
